Tests used:
[1] = system: F35T cells; assay: Foci reduction in FECD (CAG10-Cy3 FISH, foci per nucleus); type: cell-based; conditions: F35T cells, 48 h treatment, foci per nucleus; read-out: FECD EC50, 48 h
How it was run: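 Foci per nucleus were counted by imaging after overnight CAG10-Cy3 FISH at 37 °C (30% formamide, 2×SSC) with DAPI counterstain, on PFA-fixed, ethanol-permeabilized F35T cells. The cells, seeded at 5000 per well in supplemented Opti-MEM, had received 8-point compound dilutions for 48 h at 37 °C.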

[2] = system: Myotonic Dystrophy 1 affected patient fibroblasts (Coriel GM04602; 1600 CTG repeats); assay: DM1 foci reduction assay (EC50 assay; CAG10-Cy3 FISH, foci per nucleus); type: cell-based; conditions: Homo sapiens, Fibroblast; DM1 patient fibroblasts, 48 h treatment, foci per nucleus; read-out: DM1 EC50, 48 h
How it was run: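 Foci per nucleus counted by 20× imaging of 4 areas per well, after overnight FISH with 5 nM CAG10-Cy3 and DAPI staining of fixed, permeabilized cells. DM1 fibroblasts (GM04602, 1600 CTG) were dosed 48 h at 37 °C, 8 points, 3-fold dilutions, 3 μM top concentration.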

| SMILES | EC50 [1] [nM] | EC50 [2] [nM] |
| --- | --- | --- |
| CC(C)CCC(=O)N1CCC(C#CC#CC2CCN(CCOCCOCCOCCNC(=O)CCNC(=O)c3nc(NC(=O)c4cc(NC(=O)CCNC(=O)c5nc(NC(=O)CCCNC(=O)c6cc(NC(=O)c7nc(NC(=O)CCNC(=O)c8cc(NC(=O)c9nccn9C)cn8C)cn7C)cn6C)cn5C)cn4C)cn3C)CC2)CC1 [Compound B-169] | 100 to 500 | 100 to 500 |
| CC(C)CCCN1CCC(C#CC#CC2CCN(CCOCCOCCOCCNC(=O)CCNC(=O)c3nc(NC(=O)c4cc(NC(=O)CCNC(=O)c5nc(NC(=O)CCCNC(=O)c6cc(NC(=O)c7nc(NC(=O)CCNC(=O)c8cc(NC(=O)c9nccn9C)cn8C)cn7C)cn6C)cn5C)cn4C)cn3C)CC2)CC1 [Compound B-170] | 100 to 500 | 100 to 500 |
| CCCCCC(=O)N1CCC(C#CC#CC2CCN(CCOCCOCCOCCNC(=O)CCNC(=O)c3nc(NC(=O)c4cc(NC(=O)CCNC(=O)c5nc(NC(=O)CCCNC(=O)c6cc(NC(=O)c7nc(NC(=O)CCNC(=O)c8cc(NC(=O)c9nccn9C)cn8C)cn7C)cn6C)cn5C)cn4C)cn3C)CC2)CC1 [Compound B-171] | 100 to 500 | < 100 |
| CCCCCCN1CCC(C#CC#CC2CCN(CCOCCOCCOCCNC(=O)CCNC(=O)c3nc(NC(=O)c4cc(NC(=O)CCNC(=O)c5nc(NC(=O)CCCNC(=O)c6cc(NC(=O)c7nc(NC(=O)CCNC(=O)c8cc(NC(=O)c9nccn9C)cn8C)cn7C)cn6C)cn5C)cn4C)cn3C)CC2)CC1 [Compound B-172] | 100 to 500 | < 100 |
| CSCCCC(=O)N1CCC(C#CC#CC2CCN(CCOCCOCCOCCNC(=O)CCNC(=O)c3nc(NC(=O)c4cc(NC(=O)CCNC(=O)c5nc(NC(=O)CCCNC(=O)c6cc(NC(=O)c7nc(NC(=O)CCNC(=O)c8cc(NC(=O)c9nccn9C)cn8C)cn7C)cn6C)cn5C)cn4C)cn3C)CC2)CC1 [Compound B-173] | 100 to 500 | 100 to 500 |
| CSCCCCN1CCC(C#CC#CC2CCN(CCOCCOCCOCCNC(=O)CCNC(=O)c3nc(NC(=O)c4cc(NC(=O)CCNC(=O)c5nc(NC(=O)CCCNC(=O)c6cc(NC(=O)c7nc(NC(=O)CCNC(=O)c8cc(NC(=O)c9nccn9C)cn8C)cn7C)cn6C)cn5C)cn4C)cn3C)CC2)CC1 [Compound B-174] | 100 to 500 | 100 to 500 |
| Cn1cc(NC(=O)c2nc(NC(=O)CCNC(=O)c3cc(NC(=O)c4nccn4C)cn3C)cn2C)cc1C(=O)NCCCC(=O)Nc1cn(C)c(C(=O)NCCC(=O)Nc2cc(C(=O)Nc3cn(C)c(C(=O)NCCC(=O)NCCOCCOCCOCCN4CCC(C#CC#CC5CCN(C(=O)c6ccc(C(C)(C)C)cc6)CC5)CC4)n3)n(C)c2)n1 [Compound B-175] | 100 to 500 | 100 to 500 |
| Cn1cc(NC(=O)c2nc(NC(=O)CCNC(=O)c3cc(NC(=O)c4nccn4C)cn3C)cn2C)cc1C(=O)NCCCC(=O)Nc1cn(C)c(C(=O)NCCC(=O)Nc2cc(C(=O)Nc3cn(C)c(C(=O)NCCC(=O)NCCCCCN4CCC(C#CC#CC5CCN(C(=O)c6ccc(C(C)(C)C)cc6)CC5)CC4)n3)n(C)c2)n1 [Compound B-177] | 100 to 500 | 500 to 1000 |
| CC(C)CCNC(=O)CCNC(=O)c1nc(NC(=O)c2cc(NC(=O)CCNC(=O)c3nc(NC(=O)CCCNC(=O)c4cc(NC(=O)c5nc(NC(=O)CCNC(=O)c6cc(NC(=O)c7nccn7C)cn6C)cn5C)cn4C)cn3C)cn2C)cn1C [Compound B-179] | < 100 | 100 to 500 |
| CC(C)CCCN1CCC(C#CC#CC2CCN(CCCCCNC(=O)CCNC(=O)c3nc(NC(=O)c4cc(NC(=O)CCNC(=O)c5nc(NC(=O)CCCNC(=O)c6cc(NC(=O)c7nc(NC(=O)CCNC(=O)c8cc(NC(=O)c9nccn9C)cn8C)cn7C)cn6C)cn5C)cn4C)cn3C)CC2)CC1 [Compound B-185] | 100 to 500 | > 1000 |
| Cn1cc(NC(=O)c2nc(NC(=O)CCNC(=O)c3cc(NC(=O)c4nccn4C)cn3C)cn2C)cc1C(=O)NCCCC(=O)Nc1cn(C)c(C(=O)NCCC(=O)Nc2cc(C(=O)Nc3cn(C)c(C(=O)NCCC(=O)N4CCC(C5CN(C(=O)OC(C)(C)C)C5)CC4)n3)n(C)c2)n1 [Compound B-193] | < 100 | < 100 |
| Cn1cc(NC(=O)c2nc(NC(=O)CCNC(=O)c3cc(NC(=O)c4nccn4C)cn3C)cn2C)cc1C(=O)NCCCC(=O)Nc1cn(C)c(C(=O)NCCC(=O)Nc2cc(C(=O)Nc3cn(C)c(C(=O)NCCc4cnc(CNC(=O)OCc5ccccc5)[nH]4)n3)n(C)c2)n1 [Compound B-202] | < 100 | 100 to 500 |
| Cn1cc(NC(=O)c2nc(NC(=O)CCNC(=O)c3cc(NC(=O)c4nccn4C)cn3C)cn2C)cc1C(=O)NCCCC(=O)Nc1cn(C)c(C(=O)NCCC(=O)Nc2cc(C(=O)Nc3cn(C)c(C(=O)NCCCCN=[N+]=[N-])n3)n(C)c2)n1 [Compound B-203] | < 100 | < 100 |
| Cn1cc(NC(=O)c2nc(NC(=O)CCNC(=O)c3cc(NC(=O)c4nccn4C)cn3C)cn2C)cc1C(=O)NCCCC(=O)Nc1cn(C)c(C(=O)NCCC(=O)Nc2cc(C(=O)Nc3cn(C)c(C(=O)NCCCN=C(N)N)n3)n(C)c2)n1 [Compound B-205] | < 100 | < 100 |
| CN(C)C(=NCCCNC(=O)c1nc(NC(=O)c2cc(NC(=O)CCNC(=O)c3nc(NC(=O)CCCNC(=O)c4cc(NC(=O)c5nc(NC(=O)CCNC(=O)c6cc(NC(=O)c7nccn7C)cn6C)cn5C)cn4C)cn3C)cn2C)cn1C)N(C)C [Compound B-206] | 100 to 500 | 100 to 500 |
| Cn1cc(NC(=O)c2nc(NC(=O)CCNC(=O)c3cc(NC(=O)c4nccn4C)cn3C)cn2C)cc1C(=O)NCCCC(=O)Nc1cn(C)c(C(=O)NCCC(=O)Nc2cc(C(=O)Nc3cn(C)c(C(=O)NCCCN4CCNCC4)n3)n(C)c2)n1 [Compound B-207] | > 1000 | 100 to 500 |
| Cn1cc(NC(=O)c2nc(NC(=O)CCNC(=O)c3cc(NC(=O)c4nccn4C)cn3C)cn2C)cc1C(=O)NCCCC(=O)Nc1cn(C)c(C(=O)NCCC(=O)Nc2cc(C(=O)Nc3cn(C)c(C(=O)NCCCN4CCCCC4)n3)n(C)c2)n1 [Compound B-208] | 100 to 500 | 100 to 500 |
| CCCNC(=O)c1cc(NC(=O)CCNC(=O)c2nc(NC(=O)CCCNC(=O)c3cc(NC(=O)c4nc(NC(=O)CCNC(=O)c5cc(NC(=O)c6nccn6C)cn5C)cn4C)cn3C)cn2C)cn1C [Compound B-209] | > 1000 | > 1000 |
| Cn1cc(NC(=O)c2nc(NC(=O)CCNC(=O)c3cc(NC(=O)c4nccn4C)cn3C)cn2C)cc1C(=O)NCCCC(=O)Nc1cn(C)c(C(=O)NCCC(=O)Nc2cc(C(=O)Nc3cn(C)c(C(=O)NCCC(=O)N4CCC(C#CC#CC5CCN(C(=O)c6cccc(C(=O)O)c6)CC5)CC4)n3)n(C)c2)n1 [Compound B-224] | 500 to 1000 | > 1000 |
| COCCOCCOCCOCCN(CCCCCn1cc(NC(=O)c2nc(NC(=O)CCNC(=O)c3cc(NC(=O)c4nccn4C)cn3C)cn2C)cc1C(=O)NCCCC(=O)Nc1cn(C)c(C(=O)NCCC(=O)Nc2cc(C(=O)Nc3cn(C)c(C(=O)NCCC(=O)NCCOCCOCCOCCN4CCC(C#CC#CC5CCN(C(=O)OC(C)(C)C)CC5)CC4)n3)n(C)c2)n1)CCOCCOCCOCCOC [Compound B-226] | 100 to 500 | 100 to 500 |
| COCCOCCOCCOCCN(CCCCCn1cc(NC(=O)c2nc(NC(=O)CCNC(=O)c3cc(NC(=O)c4nccn4C)cn3C)cn2C)cc1C(=O)NCCCC(=O)Nc1cn(C)c(C(=O)NCCC(=O)Nc2cc(C(=O)Nc3cn(C)c(C(=O)NCCC(=O)NCCOCCOCCOCCN4CCC(C#CC#CC5CCNCC5)CC4)n3)n(C)c2)n1)CCOCCOCCOCCOC [Compound B-227] | > 1000 | > 1000 |
| COCCOCCOCCOCCN(CCOCCOCCOCCOC)C(=O)CCCCn1cc(NC(=O)c2nc(NC(=O)CCNC(=O)c3cc(NC(=O)c4nccn4C)cn3C)cn2C)cc1C(=O)NCCCC(=O)Nc1cn(C)c(C(=O)NCCC(=O)Nc2cc(C(=O)Nc3cn(C)c(C(=O)NCCC(=O)NCCOCCOCCOCCN4CCC(C#CC#CC5CCN(C(=O)OC(C)(C)C)CC5)CC4)n3)n(C)c2)n1 [Compound B-228] | 100 to 500 | 100 to 500 |
| COCCOCCOCCOCCN(CCOCCOCCOCCOC)C(=O)CCCCn1cc(NC(=O)c2nc(NC(=O)CCNC(=O)c3cc(NC(=O)c4nccn4C)cn3C)cn2C)cc1C(=O)NCCCC(=O)Nc1cn(C)c(C(=O)NCCC(=O)Nc2cc(C(=O)Nc3cn(C)c(C(=O)NCCC(=O)NCCOCCOCCOCCN4CCC(C#CC#CC5CCNCC5)CC4)n3)n(C)c2)n1 [Compound B-229] | > 1000 | > 1000 |
| CCCCCNC(=O)c1nc(NC(=O)c2cc(NC(=O)CCNC(=O)c3nc(NC(=O)CCCNC(=O)c4cc(NC(=O)c5nc(NC(=O)CCNC(=O)c6cc(NC(=O)c7nccn7C)cn6C)cn5C)cn4CCCCCCN=[N+]=[N-])cn3C)cn2C)cn1C [Compound B-232] | < 100 | < 100 |
| CN(CCCNC(=O)c1cccc(C(=O)O)c1)CCCNC(=O)c1nc(NC(=O)c2cc(NC(=O)CCNC(=O)c3nc(NC(=O)CCCNC(=O)c4cc(NC(=O)c5nc(NC(=O)CCNC(=O)c6cc(NC(=O)c7nccn7C)cn6C)cn5C)cn4CCCCCCN=[N+]=[N-])cn3C)cn2C)cn1C [Compound B-233] | 100 to 500 | 100 to 500 |
| CCCNC(=O)c1nc(NC(=O)c2cc(NC(=O)CCNC(=O)c3nc(NC(=O)CCCNC(=O)c4cc(NC(=O)c5nc(NC(=O)CCNC(=O)c6cc(NC(=O)c7nccn7C)cn6C)cn5C)cn4CCCCCCN)cn3C)cn2C)cn1C [Compound B-234] | 100 to 500 | 500 to 1000 |
| CCCNC(=O)c1nc(NC(=O)c2cc(NC(=O)CCNC(=O)c3nc(NC(=O)CCCNC(=O)c4cc(NC(=O)c5nc(NC(=O)CCNC(=O)c6cc(NC(=O)c7nccn7C)cn6C)cn5C)cn4CCCCCCNC(=O)CCOCCOCCOCCOCCOCCOC)cn3C)cn2C)cn1C [Compound B-235] | > 1000 | > 1000 |
